The values that follow come from patent US20230174521A1, “NOVEL DIACYLGLYCERIDE O-ACYLTRANSFERASE 2 INHIBITORS” (Merck Sharp & Dohme LLC, priority 2020, published 2023).

Structures are written as SMILES.

The assay has as its target T1, human DGAT2 (hDGAT2) (Homo sapiens, UniProt Q96PD7).
T1 construct: made in house; host or cells: Sf-9 insect cells (baculovirus infection); membrane fraction
T1 sequence (Q96PD7 1-388): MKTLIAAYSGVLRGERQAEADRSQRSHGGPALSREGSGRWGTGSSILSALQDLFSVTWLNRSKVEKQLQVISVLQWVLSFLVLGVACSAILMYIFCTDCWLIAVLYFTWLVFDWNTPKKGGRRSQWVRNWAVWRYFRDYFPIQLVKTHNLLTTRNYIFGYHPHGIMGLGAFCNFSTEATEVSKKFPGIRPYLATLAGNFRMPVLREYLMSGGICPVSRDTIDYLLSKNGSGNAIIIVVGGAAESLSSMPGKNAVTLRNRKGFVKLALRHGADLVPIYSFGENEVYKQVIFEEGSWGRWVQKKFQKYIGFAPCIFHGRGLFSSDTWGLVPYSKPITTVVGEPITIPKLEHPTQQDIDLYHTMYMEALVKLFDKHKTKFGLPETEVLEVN
The experiment in a line: DGAT2 enzymatic activity assay (LC/MS/MS detection of 13C18-triolein, Sf-9 membrane prep). The settings on record: hDGAT2 Sf-9 membrane, 25 μM diolein, 5 μM 13C oleoyl-CoA, rt. It counts as biochemical. Here is the method: Sf-9 insect cells were maintained in Grace's insect cell culture medium with 10% heated-inactivated fetal bovine serum, 1% Pluronic F-68 and 0.14 μg/ml Kanamycine sulfate at 27° C. in a shaker incubator. After infection with untagged baculovirus expressing human DGAT2 (hDGAT2) at multiplicity of infection (MOI) 3 for 48 hours, cells were harvested. Cell pellets were suspended in buffer containing 10 mM Tris-HCl pH 7.5, 1 mM EDTA, 250 mM sucrose and Complete Protease Inhibitor Cocktail (Sigma Aldrich), and sonicated on ice. Cell debris were removed by centrifugation at 2000×g for 15 minutes. Membrane fractions were isolated by ultracentrifugation (100,000×g), resuspended in the same buffer, and frozen (−80° C.) for later use. The protein concentration was determined with the Pierce™ BCA Protein Assay Kit (Thermo Fisher Scientific). Expression of protein levels was analyzed by immunoblotting with rabbit anti-DGAT2 antibody (Abcam, ab102831) and donkey anti-rabbit IgG H&L Alexa Fluor® 647 (Abcam, ab150075) followed by detection using Typhoon FLA9000 (GE Healthcare).
LC/MS/MS analyses were performed using Thermal Fisher's LX4-TSQ Vantage system. This system consists of an Agilent binary high-performance liquid chromatography (HPLC) pumps and a TSQ Vantage triple quadrupole MS/MS instrument. For each sample, 2 μL samples from the top organic layer of in-plate liquid-liquid extraction were injected onto a Thermo Betabasic C4 column (2.1 mm×20 mm, 5 μm particle size). The samples were then eluted using the following conditions; mobile phase: Isopropanol: acetonitrile/10 mM ammonium formate=50/35/15 (v/v/v), flow rate: 0.8 mL/min, temperature: 25° C. Data was acquired in positive mode using a heated electrospray ionization (HESI) interface. The operational parameters for the TSQ Vantage MS/MS instrument were a spray voltage of 3000 V, capillary temperature of 280° C., vaporizer temperature 400° C., sheath gas 45 arbitrary unit, Aux gas 10 arbitrary units, S-lens 165 and collision gas 1.0 mTorr. […] (SRM) chromatograms of ^13C18-triolein (Q1: 920.8>Q3:621.3) and internal standard ^13C21-triolein (Q1: 923.8>Q3:617.3) were collected for 33 sec. The peak area was integrated by Xcalibur Quan software. The ratio between the ^13C18triolein generated in the reaction and spiked in internal standard ^13C21-triolein was used to generate percentage inhibition and IC50 values. Compound percentage inhibition was calculated by the following formula: Inhibition %=1−[(compound response−low control)/(high control−low control)]×100%. Potent compounds were titrated and IC50 were calculated by 4 parameter sigmoidal curve fitting formula.
DGAT2 activity was determined by measuring the amount of enzymatic product ^13C18-triolein (^13C-1,2,3-Tri(cis-9-octadecenoyl)glycerol) using the membrane prep mentioned above. The assay was carried out in ABgene 384-well assay plates in a final volume of 25 μL at rt. The assay mixture contained the following: assay buffer (100 mM Tris.Cl, pH 7.0, 20 mM MgCl2, 5% ethanol), 25 μM of diolein, 5 μM of ^13C oleoyl-CoA and 8 ng/μL of DGAT2 membrane.
Broadly, the IC50 is the point on the concentration scale where inhibition reaches its midpoint. Low readings indicate greater potency in that assay, high ones weaker potency in that assay. The compound `Cn1nccc1-c1nn(-c2cccc(OC(F)F)c2)c2ccc(C(=O)NC3(C)CS(=O)(=O)C3)cc12` [Example 1, 1-[3-(difluoromethoxy)phenyl]-N-(3-methyl-1,1-dioxo-thietan-3-yl)-3-(2-methylpyrazol-3-yl)indazole-5-carboxamide] yielded an IC50 of 46 nM. The result for `Cn1ccc(-c2nn(-c3cccc(OC(F)F)c3)c3ccc(C(=O)NC4(C)CS(=O)(=O)C4)cc23)n1` [Example 2, 1-(3-(difluoromethoxy)phenyl)-N-(3-methyl-1,1-dioxo-thietan-3-yl)-3-(l-methylpyrazol-3-yl)indazole-5-carboxamide] reads 18 nM; that for `Cn1nccc1-n1nc(-c2ccc(F)cc2)c2cc(C(=O)NC3(C)CS(=O)(=O)C3)ccc21` [Example 3, 3-(4-fluorophenyl)-N-(3-methyl-1,1-dioxo-thietan-3-yl)-1-(2-methylpyrazol-3-yl)indazole-5-carboxamide], 389 nM. Then `C[C@]1(NC(=O)c2cnc3c(c2)c(-c2ccc(F)cc2)nn3-c2cccc(OC(F)F)c2)CCS(=O)(=O)C1` [Example 4, (S)-1-(3-(difluoromethoxy)phenyl)-3-(4-fluorophenyl)-N-(3-methyl-l,1-dioxo-thiolan-3-yl)pyrazolo[3,4-b]pyridine-5-carboxamide], with 3.2 nM; and `C[C@]1(NC(=O)c2ccc3c(c2)c(-c2ccc(F)cc2)cn3-c2ccccc2Cl)CCS(=O)(=O)C1` [Example 5, (S)-1-(2-chlorophenyl)-3-(4-fluorophenyl)-N-(3-methyl-1,1-dioxidotetrahydrothiophen-3-yl)-1H-indole-5-carboxamide], with 115 nM; and `C[C@]1(NC(=O)c2ccc3c(c2)c(-c2ccc(F)cc2)cn3-c2cccc(OC(F)F)c2)CCS(=O)(=O)C1` [Example 6, (S)-1-(3-(difluoromethoxy)phenyl)-3-(4-fluorophenyl)-N-(3 - methyl-1,1-dioxidotetrahydrothiophen-3-yl)-1H-indole-5-carboxamide], with 0.5 nM. The result for `C[C@]1(NC(=O)c2ccc3c(c2)c(-c2ccc(F)cc2)cn3-c2ccc(F)cc2)CCS(=O)(=O)C1` [Example 7, (S)-1,3-bis(4-fluorophenyl)-N-(3-methyl-1,1-dioxidotetrahydrothiophen-3-yl)-1H-indole-5-carboxamide] reads 578 nM; that for `CC1(NC(=O)c2ccc3c(ccn3-c3cccc(OC(F)F)c3)c2)CS(=O)(=O)C1` [Example 8, 1-(3-(difluoromethoxy)phenyl)-N-(3-methyl-1,1-dioxidothietan-3-yl)-1H-indole-5-carboxamide], 134 nM. Compound `CC(C)(CN1CCOCC1)NC(=O)c1ccc2c(c1)c(-c1ccccc1Cl)cn2-c1ccc(F)cc1` [Example 9, 3-(2-chlorophenyl)-1-(4-fluorophenyl)-N-(2-methyl-l-morpholinopropan-2-yl)-1H-indole-5-carboxamide] had a half-inhibitory concentration (IC50) of 12300 nM. `COCC(C)NC(=O)c1ccc2c(c1)c(-c1ccccc1Cl)cn2-c1ccc(F)cc1` (stereo not drawn) [Example 10, 3-(2-chlorophenyl)-1-(4-fluorophenyl)-N-(1-methoxypropan-2-yl)-1H-indole-5-carboxamide] gave an IC50 of 3510 nM. Then `CC(C)c1nn(-c2cccc(OC(F)F)c2)c2ncc(C(=O)N[C@@]3(C)CCS(=O)(=O)C3)cc12` [Example 11, (S)-1-(3-(difluoromethoxy)phenyl)-3-isopropyl-N-(3-methyl-1,1-dioxidotetrahydrothlophen-3-yl)-1H-pyrazolo[3,4-b]pyridine-5-carboxamide], with 16 nM; and `CC(C)c1nn(-c2cccc(OC(F)F)c2)c2ncc(C(=O)NC3(C)CS(=O)(=O)C3)cc12` [Example 12], with 9.3 nM; and `CC(C)c1nn(-c2cccc(OC(F)F)c2)c2cnc(C(=O)NC3(C)CS(=O)(=O)C3)cc12` [Example 13], with 77 nM. Then `CCc1nn(-c2cccc(OC(F)F)c2)c2ccc(C(=O)NC3(C)CS(=O)(=O)C3)cc12` [Example 14, l-(3-(difluoromethoxy)phenyl)-3-ethyl-N-(3-methyl-1,1-dioxo-thietan-3-yl)indazole-5-carboxamide], with 11 nM; and `CCCc1nn(-c2cccc(OC(F)F)c2)c2ncc(C(=O)N[C@@]3(C)CCS(=O)(=O)C3)cc12` [Example 15, (S)-1-(3-(difluoromethoxy)phenyl)-N-(3-methyl-1,1-dioxidotetrahydrothiophen-3-yl)-3-propyl-1H-pyrazolo[3,4-b]pyridine-5-carboxamide], with 6.7 nM. Then `CC(C)c1nn(-c2cccc(C3CC3)c2)c2ncc(C(=O)NC3(C)CS(=O)(=O)C3)cc12` [Example 16, l-(3-cyclopropylphenyl)-3-isopropyl-N-(3-methyl-1,1-dioxidothietan-3-yl)-1H-pyrazolo[3,4-b]pyridine-5-carboxamide], with 14 nM; and `CC(C)c1nn(-c2cncc(OC(F)F)c2)c2ncc(C(=O)NC3(C)CS(=O)(=O)C3)cc12` [Example 17], with 25 nM; and `CC(C)c1nn(-c2cncc(OC(F)F)c2)c2ccc(C(=O)NC3(C)CS(=O)(=O)C3)cc12` [Example 18], with 56 nM.

Consider `Cc1cc2c(cc1C(=O)NC1(C)CS(=O)(=O)C1)c(C(C)C)nn2-c1cccc(OC(F)F)c1` [Example 19], for which the IC50 is 134 nM. Then `Cc1c(C(=O)NC2(C)CS(=O)(=O)C2)ccc2c1c(C(C)C)nn2-c1cccc(OC(F)F)c1` [Example 20], with 5 nM; and `CC1(NC(=O)c2cnc3c(c2)c(C2CCOCC2)nn3-c2cccc(OC(F)F)c2)CS(=O)(=O)C1` [Example 21], with 7.1 nM; and `CC1(NC(=O)c2ccc3c(c2)c(C2(O)CCOCC2)nn3-c2cccc(OC(F)F)c2)CS(=O)(=O)C1` [Example 22], with 51 nM.

The compound `CC(C)(O)Cc1nn(-c2cccc(OC(F)F)c2)c2ncc(C(=O)NC3(C)CS(=O)(=O)C3)cc12` [Example 23] came in with an IC50 of 5.8 nM. Then `CC(C)(O)Cc1nn(-c2cc(OC(F)F)ccc2F)c2ncc(C(=O)NC3(C)CS(=O)(=O)C3)cc12` [Example 24, l-(5-(difluoromethoxy)-2-fluorophenyl)-3-(2-hydroxy-2-methylpropyl)-N-(3-methyl-1,1-dioxidothietan-3-yl)-1H-pyrazolo[3,4-b]pyridine-5-carboxamide], with 6.4 nM; and `Cc1ncc(OC(F)F)cc1-n1nc(CC(C)(C)O)c2cc(C(=O)NC3(C)CS(=O)(=O)C3)cnc21` [Example 25, l-(5-(difluoromethoxy)-2-methylpyridin-3-yl)-3-(2-hydroxy-2-methylpropyl)-N-(3-methyl-1,1-dioxidothietan-3-yl)-1H-pyrazolo[3,4-b]pyridine-5-carboxamide], with 705 nM; and `CC(C)c1nn(-c2cc(OCC(F)F)ncc2F)c2ncc(C(=O)NC3(C)CS(=O)(=O)C3)cc12` [Example 26, 1-(2-(2,2-difluoroethoxy)-5-fluoropyridin-4-yl)-3-isopropyl-N-(3-methyl-1,1-dioxidothietan-3-yl)-1H-pyrazolo[3,4-b]pyridine-5-carboxamide], with 2.2 nM. The result for `CC1(NC(=O)c2ccc3c(c2)c(C(F)F)nn3-c2cccc(OC(F)F)c2)CS(=O)(=O)C1` [Example 32, 1-(3-(difluoromethoxy)phenyl)-3-(difluoromethyl)-N-(3-methyl-1,1-dioxidothietan-3-yl)-1H-indazole-5-carboxamide] reads 24 nM.
